{
  "source": "patent US11629331B2",
  "about": "“Method of differentiation of human induced pluripotent stem cell to dermal papilla precursor cell and use thereof” (SEOUL NATIONAL UNIVERSITY R & DB FOUNDATION, priority 2017, dated 2023)",
  "test_system": "neural crest stem cells",
  "experiment": "Flow cytometry (SDC1, CD133) of differentiation of neural crest stem cells into dermal papilla precursor cells",
  "assay_type": "cell-based, human",
  "details": "CHIR-99021 at 0.1 μM, 1 μM and 10 μM with bFGF and BMP4; after about 2 weeks",
  "text": "To develop a dermal papilla precursor cell medium composition for inducing differentiation of dermal papilla precursor cells from neural crest stem cells, the possibility of differentiation into dermal papilla precursor cells was examined by treatment with several factors alone known as vital materials for dermal papilla cell differentiation or a combination thereof. To confirm differentiation into dermal papilla precursor cells, mouse anti-human SDC1 and CD133/2 antibodies were stained using PBS supplemented with 2% FBS, and then the stained cells were analyzed using a flow cytometer (BD Biosciences). A DMEM/[…]) (Reference 1) (Thermo Fisher, catalog no. […] To determine the role of a GSK-3 inhibitor as a WNT signal activator in the dermal papilla precursor cell medium composition for inducing differentiation of dermal papilla precursor cells from neural crest stem cells, the possibility of differentiation into dermal papilla precursor cells was examined by treatment with not only 6-bromoindirubin-3'-oxime (BIO) but also CHIR-99021 at 0.1 μM, 1 μM, and 10 μM. To confirm the possibility of differentiation into dermal papilla precursor cells, mouse anti-human SDC1 and CD133/2 antibodies were stained using PBS supplemented with 2% FBS, and then the stained cells were analyzed using a flow cytometer (BD Biosciences). A DMEM/[…]) (Reference 1) (Thermo Fisher, catalog no. […]",
  "data": [
    {"smiles": "Cc1c[nH]c(-c2cnc(NCCNc3ccc(C#N)cn3)nc2-c2ccc(Cl)cc2Cl)n1", "note": "[CHIR-99021]", "values": [
      {"measurement": "differentiation efficiency into dermal papilla precursor cells (SDC1, CD133 flow cytometry)", "result": "differentiation efficiency increased according to the concentration"}
    ]}
  ]
}
